From PMC11842024, “Reversible male contraception by targeted inhibition of serine/threonine kinase 33” (Science (New York, N.Y.), 2024)

System: male mice
Experiment: Scanning electron microscopy (SEM) of sperm morphology
Format: in vivo
Conditions: protocol 2 at 63 days, n = 3
Description: Fig. 4. CDD-2807 treatment induces a reversible contraceptive effect. […] Fertility was restored to levels equal to those of controls after halting CDD-2807 treatment for 3 weeks in protocol 1; in protocol 2, fertility was restored an average of 53.5 ± 5.1 days after completion of CDD-2807 treatment compared to the controls (3.5 ± 0.2 days). (C) There are no observed morphological differences in testes from control and CDD-2807 treatment in mice from protocol 2 at 63 days; testis size of CDD-2807–treated mice in protocol 2 (87.13 ± 5.87 mg) was not statistically changed versus control males (111.10 ± 6.50 mg). […] (H) For SEM quantification, a minimum of 100 sperm per group were counted and determined to be either normal or abnormal (having head or tail defects). Counts were totaled and then turned into a percentage of normal versus abnormal sperm per group. By SEM analysis, 94.7 ± 2.7% of the sperm in the CDD-2807–treated mice (n = 3) in protocol 2 had morphologic defects at 63 days, including head and tail defects as shown, compared to only 10.9 ± 2.7% abnormal sperm for the controls (n = 3). Scale bars: 0.5 cm (C), […] (H). **P < 0.01, ***P < 0.001, ****P < 0.0001.

SMILES: O=C(c1ccc2[nH]nc(C#Cc3ccccc3-c3ccccc3)c2c1)N1CC2(CCCNC2)C1 [CDD-2807]
- sperm with morphologic defects (abnormal sperm) by SEM: 94.7 ± 2.7%
